Test results from article PMC12071598, “Piperazine-Substituted Pyranopyridines Exhibit Antiproliferative Activity and Act as Inhibitors of HBV Virion Production” (International Journal of Molecular Sciences, 2025).
≈ marks a conversion by molar mass, not a printed value. Like-named read-outs stand apart in the source and are kept apart here.

Assays:
K562 [1] = tested on: K562; design: method as in PMID 22677031; conditions: leukemic cell lines (including K562) ref 57; cited from earlier work
A549 [2] = assay: Antiproliferative activity, MTT assay, A549; type: cell-based; conditions: Homo sapiens, A549 lung carcinoma, 72 h
HeLa = assay: Antiproliferative activity, MTT assay, HeLa; type: cell-based; conditions: Homo sapiens, HeLa cervix carcinoma, 72 h
DU145 = assay: Antiproliferative activity, MTT assay, DU145; type: cell-based; conditions: Homo sapiens, DU-145, DU145 prostate carcinoma, 72 h
K562 [3] = assay: Antiproliferative activity, MTT assay, K562; type: cell-based; conditions: Homo sapiens, K562 chronic myeloid leukemia, 72 h
SH-SY5Y = assay: Antiproliferative activity, crystal violet staining, SH-SY5Y; type: cell-based; conditions: Homo sapiens, SH-SY5Y neuroblastoma, 72 h
HepaRG = assay: Cytotoxicity towards non-tumor differentiated HepaRG cells, MTT; type: cell-based, human; conditions: concentration decreasing number of viable cells by 50%; for IC50: Homo sapiens
Influenza A virus = assay: microbe, parasite or virus in culture; type: cell-based, influenza A virus (H1N1)
[4] = Cytotoxicity by MTS assay in MDCK cells; type: cell-based; conditions: dog, read-out: Influenza A Virus CC50
Method: Production of influenza A virus (H1N1) stock and its infection of MDCK cells, as well as infection of Vero E6 cells with SARS-CoV-2, were described previously. Cytotoxicity of the compounds towards MDCK and VeroE6 cells was assessed by seeding 18,000 cells/well of […] plates in 0.1 mL DMEM, treating with the compounds for 66 h, and measuring cell viability by MTS assay. As positive controls, oseltamivir and N-hydroxicytidine were used (obtained from Sigma).
The compounds were added at non-toxic concentrations in serum-free DMEM to the respective cells; one hour later, the serial 10-fold dilutions of influenza virus or SARS-CoV-2 were added in serum-free medium, and antiviral activity was determined by the reduction in the infectious titer of the virus by cytopathic action (CPE). Calculation of 50% cytotoxic concentration (CC50) and 50% effective concentration (IC50) was performed by standard methods using Microsoft Excel 5.0 and GraphPad Prism 8 (GraphPad Software Inc., Boston, MA, USA).

SARS-CoV-2 = assay: microbe, parasite or virus in culture; type: cell-based; conditions: for IC50: Severe acute respiratory syndrome coronavirus 2, Vero C1008, read-out: SARS-CoV-2 IC50, µM
PV1 = assay: microbe, parasite or virus in culture; type: cell-based, poliovirus type 1; conditions: Enterovirus C, 48 h, read-out: PV1 IC50, µM
NDV = assay: microbe, parasite or virus in culture; type: cell-based, Newcastle disease virus; conditions: avian paramyxovirus 1, 48 h, read-out: NDV IC50, µM
HSV-1 = assay: microbe, parasite or virus in culture; type: cell-based, herpes simplex virus type 1; conditions: Human alphaherpesvirus 1, 48 h, read-out: HSV-1 IC50, µM
VV = assay: microbe, parasite or virus in culture; type: cell-based; conditions: Orthopoxvirus vaccinia, 48 h, read-out: VV IC50, µM
hepatitis B virus (HBV) = assay: microbe, parasite or virus in culture; type: cell-based; conditions: Hepatitis B virus, 144 h
Nrf2/ARE pathway = assay: Status of Nrf2/ARE pathway, real-time RT-PCR in A549 cells; type: cell-based; conditions: A549, 10 µM, three days
Method: Increased ROS production is often counteracted by the induction of antioxidant enzymes, many of which are controlled by the Nrf2 transcription factor [49]. So, we analyzed if the compounds could have activated this antioxidant defense system.
A possible effect of the least-toxic 3 compounds (DO11-37, DO11-45, and DO11-47) on the status of Nrf2/ARE pathway was analyzed by quantification of expression of Nrf2 and Nrf2-dependend genes using real-time PCR analysis. A549 cells were seeded in 6-well plates at a density of 3.09 × 10^5 cells/well in DMEM-F12 media supplemented with FBS and glutamine and treated with 10 µM compounds for three days. Next, total RNA was isolated using CleanRNA standard kit (Evrogen) with subsequent treatment with DNAseI (Roche, Basel, Switzerland), and 2 µg of RNA from each sample was reverse-transcribed using random hexamer primer and mint reverse transcriptase according to manufacturer’s protocol and subjected to real-time PCR as described previously using primers listed in the Table 5.

A549 [5] = conditions: read-out: IC50 against A549; cited from earlier work
H1299 cells [6] = assay: Cell death in H1299 cells, NucView 488 caspase 3/7 and 7-AAD staining; type: cell-based; conditions: H1299, 72 h; 2.5 and 5 µM DO11-46 or 5 and 10 µM DO11-48
Method: To investigate the mechanism of the cytotoxic action of piperazine-substituted pyranopyridines, we evaluated two compounds, namely, DO11-46 and DO11-48, that acted in submicromolar concentrations. The first step was to which type of cell death they induce. This was carried out by staining H1299 cells with 7AAD dye that stains non-viable cells (with damaged membrane) and NucView-488 dye for caspase 3/7 activity as they are activated during apoptosis. Imaging and analysis protocols for H1299 were established earlier, and cells were imaged using automated microscopy and then analyzed using Cellpose and CellProfiler.
To analyze cell death mechanisms, we stained cells NucView 488 (Biotium, Fremont, CA, USA) probe for caspase 3 and 7 activity, 1 ug/mL of non-permeable DNA dye 7-AAD (BioinnLabs, Russia), and stain for labile Fe2+ HMRhoNox-M (Lumiprobe, Russia). Cells were treated with drugs for 72 h and then stained for 30 min with 2 uM NucView 488 and 2 uM HMRhoNox-M at 37 °C. Then, cells were washed once in DMEM with low autofluorescence, then 1 ug/mL 7-AAD was added, and cells were imaged using Leica DMI8 automated microscope. […] HMRhoNox-M signal was analyzed as mean fluorescence intensity per cell. Experiments were repeated two independent times, and 4 random images were recorded each time.

A549 cells = assay: Intracellular ROS assay, DCFH2-DA in A549 cells; type: cell-based; conditions: A549, 10 µM, 72 h
From the text: As cell death is often triggered by increased production of reactive oxygen species (ROS), the next step was to evaluate if our compounds act as pro-oxidants. ROS production was accessed using cell-permeable redox sensitive DCFH2-DA dye. […] As one of the main sites of ROS production is mitochondria, we also evaluated their membrane potential during treatment with either DO11-46 or DO11-48. […] Lysosome activation often accompany late stages of apoptosis, which is in good accordance with our data on the induction of caspase3/7 activity.
Pro-oxidant activity of the compounds was studied by quantification of ROS production using a cell-permeable fluorogenic probe 2′,7′-dichlorodihydrofluorescein diacetate (DCFH2-DA). A549 cells were seeded on a 48-well plate at a density of 10,000 cells/well. Twenty-four hours later, the compounds were added to 10 µM concentration in quadruplicate, and the cells were kept for 72 h. As a positive control, A549 cells were treated with 1 mM H2O2 for 2 h prior analysis. Then, media were replaced with the fresh FBS-lacking DMEM supplemented with 25 µM DCFH2-DA. After 45 min incubation, the cells were washed 10 times with 500 µL PBS, resuspended in 200 µL PBS and transferred to a black 96-well plate. The fluorescence intensities (FLIs) were measured using CHAMELEON V microplate reader with excitation at 485 nm and emission at 535 nm.

H1299 cells [7] = assay: Mitochondrial membrane potential, TMRE in H1299 cells; type: cell-based; conditions: H1299, 72 h
Method: (§1) H1299 cells were seeded at 750 cells/well density in 96-well plate, treated with drugs for 72 h and then stained with 1 ug/mL Hoechst-33342 (Lumiprobe, Moscow, Russia), 100 nM TMRE (Lumiprobe, Russia) potential-dependent mitochondria stain, 100 nM LumiTracker LysoGreen (Lumiprobe, Russia) stain for acidic lysosomes, and 0.33 ug/mL Tubulin Tracker Deep Red (Invitrogen, USA). Cells were stained at 37 °C for 30 min with all stains, except for LysoGreen, which was added 5 min before imaging. Cells were washed once and imaged in DMEM with low autofluorescence (BioinnLabs, Rostov na Donu, Russia) with Leica DMI8 automated microscope (Wetzlar, Germany). Fluorescent imaging was performed using 10× objective with the following parameters: for Hoechst-33342 excitation 325–375 nm and emission 435–485 nm, LysoGreen 460–500/512–542 nm, TMRE 541–551/565–605 nm, and Tubulin Tracker 590–650/662–738 nm. For nuclei segmentation, we applied cyto3 model from Cellpose v3 [42] to Hoechst-33342 images, and cell cytoplasm was segmented using merged TMRE and Tubulin Tracker images with Sauvola propagation method in CellProfiler v4.2 [43]. Integrated intensity of TMRE and LysoGreen fluorescence for each cell were calculated using CellProfiler. […] Experiments were repeated two independent times, and 4 random images were recorded each time.

H1299 cells [8] = assay: Labile Fe2+ levels, HMRhoNox-M in H1299 cells; type: cell-based; conditions: H1299, 72 h
Method: To analyze cell death mechanisms, we stained cells NucView 488 (Biotium, Fremont, CA, USA) probe for caspase 3 and 7 activity, 1 ug/mL of non-permeable DNA dye 7-AAD (BioinnLabs, Russia), and stain for labile Fe2+ HMRhoNox-M (Lumiprobe, Russia). Cells were treated with drugs for 72 h and then stained for 30 min with 2 uM NucView 488 and 2 uM HMRhoNox-M at 37 °C. Then, cells were washed once in DMEM with low autofluorescence, then 1 ug/mL 7-AAD was added, and cells were imaged using Leica DMI8 automated microscope. Fluorescent imaging was performed using 10x objective with the following parameters: for Hoechst-33342 excitation 325–375 nm and emission 435–485 nm, NucView 488 460–500/512–542 nm, HMRho-Nox-M 541–551/565–605 nm, and 7-AAD 590–650/662–738 nm. Cells were segmented using images in bright field with cyto3 model from Cellpose and then processed in CellProfiler. 7-AAD and NucView 488 images were used to segment nuclei of necrotic or apoptotic cells in CellProfiler. If a cell contained nucleus stained with NucView 488, it was considered as apoptotic, and if it contained a nucleus stained only with 7-AAD, it was considered as necrotic. HMRhoNox-M signal was analyzed as mean fluorescence intensity per cell. Experiments were repeated two independent times, and 4 random images were recorded each time.

H1299 cells [9] = assay: Lysosome accumulation, LysoGreen in H1299 cells; type: cell-based; conditions: H1299, 72 h
Method: as §1

[10] = read-out: Extracellular HBV DNA (Δlog10)
[11] = read-out: Intracellular Total HBV RNA (Δlog10)

Row | Structure (SMILES) | IC50 (A549 [2]) | IC50 (HeLa) | IC50 (DU145) | IC50 (K562 [3]) | IC50 (SH-SY5Y) | IC50 (HepaRG) | Influenza A Virus Δlgmax (Influenza A virus) | CC50 at 66 h [4] | SARS-CoV-2 Δlgmax (SARS-CoV-2) | IC50 (SARS-CoV-2) | IC50 (PV1) | IC50 (NDV) | IC50 (HSV-1) | IC50 (VV) | log reduction at 1 µM (hepatitis B virus (HBV); [10]) | log reduction at 10 µM (hepatitis B virus (HBV); [10]) | log reduction at 1 µM (hepatitis B virus (HBV); [11]) | log reduction at 10 µM (hepatitis B virus (HBV); [11]) | other results
1 | CC(=O)C(=NNc1ccc2c(=O)cc(-c3ccccc3)oc2c1)N1CCCCC1 [11a, 7-[2-(2-oxo-1-(piperidin-1-yl)propylidene)hydrazinyl]-2-phenyl-4H-chromen-4-one] |  |  |  |  |  |  |  |  |  |  |  |  |  |  |  |  |  |  | IC50 against K562 (K562 [1]): 2.56 ± 0.57 µg/mL (≈ 6.57 µM)
2 | COc1cccc(NC(=O)CSc2nc(N3CCNCC3)c3c(c2C#N)CC(C)(C)OC3)c1 [DO11-47, 2-[(5-Cyano-3,3-dimethyl-8-piperazin-1-yl-3,4-dihydro-1H-pyrano[3,4-c]pyridin-6-yl)thio]-N-(3-methoxyphenyl)acetamide] | 67.8 ± 5.8 µM | 39.3 ± 16.9 µM | 10 ± 2.9 µM | 12.8 ± 4.2 µM | 36.7 ± 18.2 µM | 437 ± 14.8 µM | 0 | 810 µM | 0 | > 38 µM | > 60 µM | > 60 µM | > 60 µM | > 60 µM | < 0.5 | < 0.5 | < 0.5 | < 0.5 | IC50 (µM) HepaRG (HepaRG): almost non-toxic; expression of Nrf2, NQO1, HO-1, GCLC, and GCLM genes (Nrf2/ARE pathway): increase was not statistically significant
3 | CC(=O)CN1CCN(c2ccc(C(=O)C=Cc3ccc(N(C)C)cc3)cc2)CC1 [dimethylamino-4’-[N-(2-oxopropyl)-1-piperazinyl]chalcone] |  |  |  |  |  |  |  |  |  |  |  |  |  |  |  |  |  |  | IC50 (A549 [5]): 0.19 µM
4 | COc1ccccc1NC(=O)CSc1nc(N2CCNCC2)c2c(c1C#N)CC(C)(C)OC2 [DO11-48, 2-[(5-Cyano-3,3-dimethyl-8-piperazin-1-yl-3,4-dihydro-1H-pyrano[3,4-c]pyridin-6-yl)thio]-N-(2-methoxyphenyl)acetamide] | 3.5 ± 0.7 µM | 2.2 ± 0.6 µM | 2.5 ± 1.2 µM | 0.5 ± 0.1 µM | 18.1 ± 5.1 µM | 10.9 ± 1.6 µM | 0 | 830 µM | 0 | > 10 µM | > 3.75 µM | > 3.75 µM | > 3.75 µM | > 3.75 µM | < 0.5 | < 0.5 | < 0.5 | < 0.5 | number of apoptotic and necrotic cells (H1299 cells [6]): increased the number of apoptotic and necrotic cells; ROS generation (A549 cells): significantly increased ROS generation; mitochondrial membrane potential (H1299 cells [7]): neither of them caused mitochondrial dysfunction; levels of Fe2+ ions (H1299 cells [8]): did not affect; accumulation of lysosomes (H1299 cells [9]): induced the accumulation of lysosomes
